Results as given in patent US20240374734A1, “Immunomodulatory Combinations of Antigen and Drug-Lipid Conjugate” (Integrated Nanotherapeutics Inc., priority 2021, published 2024).
Like-named read-outs stand apart in the source and are kept apart here.

Experiments:
[1] = Characterisation of prodrug LNP: particle size, PdI, prodrug entrapment; type: physicochemical; details: for % Entrap (Dex/Calcitriol): Calcitriol: Table 2, calcitriol prodrug; for PdI / Size: Table 2, prodrug LNP
Method: Lipid conjugates (prodrugs) were dissolved in ethanol, isopropanol, DMSO or THF. LNP were prepared by rapidly mixing DSPC or DMPC, cholesterol, prodrugs, and PEG-DSPE (in a molar ratio of 49/40/10/1) with phosphate-buffered saline (PBS) using a cross-junction mixer. Formulations were dialyzed against PBS to remove residual ethanol. In cases where a peptide antigen, such as ovalbumin peptide […] (OVA), was co-formulated within the LNP, the peptide is dissolved in PBS and rapidly mixed with the lipid phase. Dialysis or tangential flow filtration was used to remove all unentrapped peptide.
(§1) The physiochemical properties of the LNPs prepared as described above were subsequently characterized. Particle size was determined by dynamic light scattering using a Malvern Zetasizer Nano ZS (Malvern, UK) following buffer exchange into phosphate-buffered saline. Number-weighted size and distribution data was used. Lipid concentrations were determined by measuring total cholesterol using the Cholesterol E enzymatic assay kit from Wako Chemicals USA (Richmond, VA). mRNA entrapment was determined using a modified Quanti-iT Ribogreen assay (ThermoFisher, Waltham, MA). LNP-mRNA systems were incubated in the presence or absence of 1% Triton X-100 (Sigma-Aldrich, St. Louis, MO). Fluorescence intensities (Ex/Em: 480/520 nm) were compare to determine % mRNA entrapment.

[2] = tested on: CD4+ T cells from OT-II mice; assay: Antigen-specific OT-II CD4+ T cell proliferation with OVA peptide and prodrug-treated BMDCs; type: cell-based; details: BMDCs pre-treated with prodrug LNP, pulsed with free OVA peptide
Description: CD4 T cells were collected from OT-II mice. These mice have T cell receptors on CD4+ T cells engineered to bind and react to Ovalbumin 323-339 peptide fragment (OVA) when presented on I-Ab MHC Class II. When APCs are loaded with OVA and mixed with these T cells, a robust proliferation of T cells is observed (akin to having an antigen-specific immune disorder).
For the antigen specific model, splenocytes were isolated from OT-II mice (B6.Cg-Tg (TcraTcrb) 425Cbn/J; Jackson Laboratories). CD4+ T cells were purified by CD4 positive selection (EasySep™ Mouse CD4+ T Cell Isolation Kit, Catalog #19852, Stem Cell Technologies) and labelled with 10 μM CFSE and plated in 96-well U bottom plates at a density of 100,000 cells/well. On the same day, prodrug treated C57BL/6 BMDCs (described above) were harvested, pulsed with/without OVA peptide, irradiated at 30 Gy, and co-cultured with the CD4+ cells for 3 days at T:DC ratios of 50:1, 10:1 and 5:1, in RPMI 1640 media (supplemented with 10% FBS, 10 mM HEPES, 50 μM β-mercaptoethanol, 10 mM sodium pyruvate, 1× GlutaMAX, and 1% Pen/Strep). Subsequently, cells were stained for viability (eBioscience Fixable Viability Dye eFlour780, cat #65-0865) and CD4 (eBioscience CD4 Monoclonal Antibody (RM4-5), cat #48-0042-82), and T cell proliferation was quantified via CFSE dilution by flow cytometry.

[3] = tested on: Ova specific CD4+ T cells (OT-II T cells); assay: OT-II CD4+ T cell proliferation after BMDC co-treatment with LNP-mRNA and prodrug-LNP; type: cell-based, mice; details: BMDCs treated 48 hours with LNP-mRNA only or LNP-mRNA and separate prodrug LNP
Method: The mRNA used in this example is modified to minimize immune stimulation and encodes for full length Ovalbumin (Ova) protein (Trilink, L-7210). Bone marrow-derived dendritic cells (BMDCs) were prepared as previously described and co-cultured with isolated CD4+ T cells (OT-II T cells) that specifically recognize the Ova323-339 epitope loaded in H-2b MHC Class II (C57BL/6 haplotype). Proliferation was assessed based on CFSE dilution by flow cytometry. BMDCs pulsed for 4 hours with free Ova323-339 peptide (0.1 μg/mL) served as an antigen-loaded control (Free Ova Peptide), and untreated BMDCs served as the No Antigen control. 48 hours prior to co-culturing, BMDCs were treated with LNP-mRNA only or LNP-mRNA and LNP containing dexamethasone (D034) or calcitriol (D053) prodrugs.

[4] = Retention of lipid conjugate (prodrug) in LNP after incubation in human plasma; details: 2 hours incubation in human plasma; DSPC/Chol/Prodrug/DSPE-PEG LNP
[5] = Characterisation of LNP co-loaded with mRNA and prodrugs: Z-Ave, PDI, mRNA and prodrug entrapment; type: physicochemical
Method: To prepare LNPs that contain mRNA that codes for the antigen, ionizable lipid such as INT-A002 (see page 32 of co-owned WO 2021/026647; Application No. PCT/CA2020/051098, which is incorporated herein by reference), DSPC, cholesterol and PEG-DMG were dissolved in ethanol. Prodrugs were dissolved in ethanol, isopropanol, DMSO or THF. The mRNA was dissolved in 10 mM citrate or 25 mM acetate buffer at pH 4.0. LNP were prepared by rapidly mixing the lipid components in ethanol (in molar ratio of 45/8.5/35/1.5/10 of INT-A002/DSPC/chol/PEG-DMG/prodrugs) with nucleic acids in aqueous buffer at a volumetric flow rate ratio of 1:3 (ethanol to aqueous, combined flow rate 28 ml/min) at room temperature. The product was then dialyzed against 1× phosphate-buffered saline (PBS) at pH 7.4 for 24 hours to remove residual ethanol and to raise the pH.
as §1

[6] = human, plasma, 2 h
[7] = Table 6, LNP-mRNA with lipid conjugate

C=C1/C(=C\C=C2/CCC[C@]3(C)[C@@H]([C@H](C)CCCC(C)(C)O)CC[C@@H]23)C[C@@H](OC(=O)CCCCCCC/C=C\C[C@@H](CCCCCC)OC(=O)CCCCCCC/C=C\C/C=C\CCCCC)C[C@@H]1OC(=O)CCCCCCC/C=C\C[C@@H](CCCCCC)OC(=O)CCCCCCC/C=C\C/C=C\CCCCC [Prodrug D087]
% Entrap (Dex/Calcitriol): Calcitriol [1]: —/99%
PdI [1]: 0.055
Size [1]: 40 nm

(1R,3S,Z)-3-hydroxy-5-(2-((1R,3aS,7aR,E)-1-((R)-6-hydroxy-6-methylheptan-2-yl)-7a-methyloctahydro-4H-inden-4-ylidene)ethylidene)-4-methylenecyclohexyl (R,Z)-12-acetoxyoctadec-9-enoate and (1S,5R,Z)-5-hydroxy-3-(2-((1R,3aS,7aR,E)-1-((R)-6-hydroxy-6-methylheptan-2-yl)-7a-methyloctahydro-4H-inden-4-ylidene)ethylidene)-2-methylenecyclohexyl (R,Z)-12-acetoxyoctadec-9-enoate [Prodrug D053]
T cell proliferation induced by OVA loaded BMDCs [2]: significantly reduces
% Entrap (Dex/Calcitriol): Calcitriol [1]: —/98%
PdI [1]: 0.070
Size [1]: 55 nm
T-cell proliferation (CFSE dilution) [3]: suppressed
lipid conjugate (prodrug) remaining in LNPs [4]: stably retained
% mRNA Entrap. [5, 7]: 97%
PDI [5, 7]: 0.034
Z-Ave (nm) ([5]; Table 6, LNP-mRNA with lipid conjugate (mol %)): 69 nm

CCCCC/C=C\C/C=C\CCCCCCCC(=O)O[C@@H](C/C=C\CCCCCCCCOC(=O)CCC(=O)OCC(=O)[C@@]1(O)[C@H](C)C[C@H]2[C@@H]3CCC4=CC(=O)C=C[C@]4(C)[C@@]3(F)[C@@H](O)C[C@@]21C)CCCCCC [Prodrug D045, 2-((8S,9R,10S,11S,13S,14S,16R,17R)-9-fluoro-11,17-dihydroxy-10,13,16-trimethyl-3-oxo-6,7,8,9,10,11,12,13,14,15,16,17-dodecahydro-3H-cyclopenta[a]phenanthren-17-yl)-2-oxoethyl ((R,Z)-12-(linoleoyloxy)octadec-9-en-1-yl) succinate]
lipid conjugate (prodrug) remaining in LNPs [6]: stably retained
